Measured values: US20080214606A1, “Methods for the Identification and Use of Compounds Suitable for the Treatment of Drug Resistant Cancer Cells” (The Government of the United States of America as …, priority 2004, published 2008)
“Also recorded” adds a separate entry of the source. Read-outs that look alike come from different tables or passages of the source.

Columns and labels:
ABCC5 = biological target: T1, ABCC5 (Homo sapiens, UniProt O15440); experiment: Correlation of ABCC5 expression with drug sensitivity across the NCI-60; type: cell-based; conditions: Pearson correlation of ABCC5 expression with sensitivity of the 60 cell lines; 1429 compounds; inverse, p < 0.0001
T1 construct: profiled in 60 diverse cancer cell lines (the NCI-60) using real-time RT-PCR; endogenous in cells; host or cells: NCI-60 human cancer cell lines
T1 sequence (O15440 whole entry): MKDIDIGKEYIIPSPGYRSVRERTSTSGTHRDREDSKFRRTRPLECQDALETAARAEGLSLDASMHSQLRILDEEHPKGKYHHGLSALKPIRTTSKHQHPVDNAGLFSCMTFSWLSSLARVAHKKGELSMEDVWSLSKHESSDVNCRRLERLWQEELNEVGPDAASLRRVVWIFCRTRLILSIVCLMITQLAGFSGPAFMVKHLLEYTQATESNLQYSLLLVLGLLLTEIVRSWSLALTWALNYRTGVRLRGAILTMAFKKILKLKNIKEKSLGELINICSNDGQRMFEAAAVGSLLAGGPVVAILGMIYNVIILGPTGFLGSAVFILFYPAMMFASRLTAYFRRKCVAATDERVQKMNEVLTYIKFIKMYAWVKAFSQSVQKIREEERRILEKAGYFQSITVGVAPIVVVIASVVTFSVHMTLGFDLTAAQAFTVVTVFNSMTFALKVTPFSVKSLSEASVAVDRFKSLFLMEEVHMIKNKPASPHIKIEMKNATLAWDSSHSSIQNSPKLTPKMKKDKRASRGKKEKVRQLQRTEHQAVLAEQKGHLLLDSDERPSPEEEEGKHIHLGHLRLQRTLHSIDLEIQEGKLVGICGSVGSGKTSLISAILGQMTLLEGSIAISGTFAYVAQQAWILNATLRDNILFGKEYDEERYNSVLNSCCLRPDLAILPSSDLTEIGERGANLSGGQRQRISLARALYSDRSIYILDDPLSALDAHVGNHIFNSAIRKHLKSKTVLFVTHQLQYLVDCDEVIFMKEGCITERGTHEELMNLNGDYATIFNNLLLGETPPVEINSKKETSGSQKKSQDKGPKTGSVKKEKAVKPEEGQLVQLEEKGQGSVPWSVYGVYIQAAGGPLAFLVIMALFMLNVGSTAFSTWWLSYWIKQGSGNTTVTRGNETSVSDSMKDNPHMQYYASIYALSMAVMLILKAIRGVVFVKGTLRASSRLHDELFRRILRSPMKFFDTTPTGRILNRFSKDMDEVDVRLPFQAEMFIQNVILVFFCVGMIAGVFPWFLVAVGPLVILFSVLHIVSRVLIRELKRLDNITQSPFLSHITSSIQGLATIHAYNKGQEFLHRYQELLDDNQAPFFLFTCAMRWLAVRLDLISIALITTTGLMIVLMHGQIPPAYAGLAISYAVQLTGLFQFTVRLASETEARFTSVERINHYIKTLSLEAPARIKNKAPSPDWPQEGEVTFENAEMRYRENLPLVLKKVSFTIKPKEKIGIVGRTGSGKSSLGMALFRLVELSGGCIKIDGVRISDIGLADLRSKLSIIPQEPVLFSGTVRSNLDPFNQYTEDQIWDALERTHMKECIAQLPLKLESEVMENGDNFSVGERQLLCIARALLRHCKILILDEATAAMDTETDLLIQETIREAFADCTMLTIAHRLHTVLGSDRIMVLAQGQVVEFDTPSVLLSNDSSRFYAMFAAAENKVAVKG
Protocol: (§1) Expression levels are measured by real-time quantitative RT-PCR using the LightCycler RNA Amplification SYBR Green kit and a LightCycler machine (Roche Biochemicals, Indianapolis, Ind.). […] When possible, the amplicons are designed to encompass exon-intron boundaries to avoid amplification of genomic DNA. Since the Syber Green assay detects accumulation of double stranded DNA, primers are selected (from a battery consisting of about 200 primers) that amplified a single product of the correct size.
(§2) RT-PCR is carried out on 150 ng total RNA, in the presence of 250 nM specific primers. Following reverse transcription (20 min at 50° C.), the PCR reaction consists of 45 cycles of denaturation (15 sec at 95° C.), annealing (30 sec at 58° C.), and elongation (30 sec at 72° C.). No-template (water) reaction mixtures are prepared as negative controls.
(§3) During PCR amplification, fluorescence emission is measured and recorded in real time by the LightCycler. Crossing point values are calculated, using the LightCycler software package, by the Fit Points analysis method, with baseline fluorescence set at 1. The SyberGreen assay measures accumulation of double-stranded products, and the appearance of primer dimers limits quantitation at high cycle numbers. The specificity of amplified products is verified by melting-curve analysis and agarose gel electrophoresis (not shown). The raw results are expressed as number of cycles to reach the crossing point. If the desired product is not detected, the corresponding value is adjusted to crossing points indicating no expression. To assess the contribution of experimental artifacts, selected cell lines are assessed in replicate.
(§4) The two are combined to form a joint dataset that includes 1429 compounds.
(§5) In the Benjamini-Hochberg procedure the p-values are computed in the standard way by permutation, assuming that all distributions are exchangeable: the number of values in the permuted data with correlations over a threshold, divided by the number of compounds and by the number of permutations. In this analysis, the False Discovery Rate (q-value) at which each compound would be declared was calculated using the step-up procedure for positively correlated test statistics (again true because all correlations being compared are computed against the same ABC gene): in this procedure the first q-value for the largest correlation is the Bonferroni-corrected p-value for that gene; then further q-values are calculated as qj=max(pj*1429/j, qj-1). This procedure limits the expected proportion of false positives in the list 1, . . . , j to at most qj.

ABCB6 = biological target: T2, ABCB6 (Homo sapiens, UniProt Q9NP58); experiment: Correlation of ABCB6 expression with drug sensitivity across the NCI-60; type: cell-based; conditions: Pearson correlation of ABCB6 expression with sensitivity of the 60 cell lines; 1429 compounds; inverse, p < 0.0001
T2 construct: profiled in 60 diverse cancer cell lines (the NCI-60) using real-time RT-PCR; endogenous in cells; host or cells: NCI-60 human cancer cell lines
Protocol: (§6) Expression levels are measured by real-time quantitative RT-PCR using the LightCycler RNA Amplification SYBR Green kit and a LightCycler machine (Roche Biochemicals, Indianapolis, Ind.). Specific oligonucleotide probes are designed for each of the ABC transporters using DNAStar Primer Select (DNASTAR Inc.), and they may be synthesized at Lofstrand Laboratories (Gaithersburg, Md.). When possible, the amplicons are designed to encompass exon-intron boundaries to avoid amplification of genomic DNA. Since the Syber Green assay detects accumulation of double stranded DNA, primers are selected (from a battery consisting of about 200 primers) that amplified a single product of the correct size. […]
(§7) During PCR amplification, fluorescence emission is measured and recorded in real time by the LightCycler. Crossing point values are calculated, using the LightCycler software package, by the Fit Points analysis method, with baseline fluorescence set at 1. The SyberGreen assay measures accumulation of double-stranded products, and the appearance of primer dimers limits quantitation at high cycle numbers. […] The raw results are expressed as number of cycles to reach the crossing point. If the desired product is not detected, the corresponding value is adjusted to crossing points indicating no expression. To assess the contribution of experimental artifacts, selected cell lines are assessed in replicate. […]

ABCA12 = biological target: T3, ABCA12 (Homo sapiens, UniProt Q86UK0); experiment: Correlation of ABCA12 expression with drug sensitivity across the NCI-60; type: cell-based; conditions: Pearson correlation of ABCA12 expression with sensitivity of the 60 cell lines; 1429 compounds; inverse, p < 0.0001
T3 construct: profiled in 60 diverse cancer cell lines (the NCI-60) using real-time RT-PCR; endogenous in cells; host or cells: NCI-60 human cancer cell lines
T3 sequence (Q86UK0 whole entry): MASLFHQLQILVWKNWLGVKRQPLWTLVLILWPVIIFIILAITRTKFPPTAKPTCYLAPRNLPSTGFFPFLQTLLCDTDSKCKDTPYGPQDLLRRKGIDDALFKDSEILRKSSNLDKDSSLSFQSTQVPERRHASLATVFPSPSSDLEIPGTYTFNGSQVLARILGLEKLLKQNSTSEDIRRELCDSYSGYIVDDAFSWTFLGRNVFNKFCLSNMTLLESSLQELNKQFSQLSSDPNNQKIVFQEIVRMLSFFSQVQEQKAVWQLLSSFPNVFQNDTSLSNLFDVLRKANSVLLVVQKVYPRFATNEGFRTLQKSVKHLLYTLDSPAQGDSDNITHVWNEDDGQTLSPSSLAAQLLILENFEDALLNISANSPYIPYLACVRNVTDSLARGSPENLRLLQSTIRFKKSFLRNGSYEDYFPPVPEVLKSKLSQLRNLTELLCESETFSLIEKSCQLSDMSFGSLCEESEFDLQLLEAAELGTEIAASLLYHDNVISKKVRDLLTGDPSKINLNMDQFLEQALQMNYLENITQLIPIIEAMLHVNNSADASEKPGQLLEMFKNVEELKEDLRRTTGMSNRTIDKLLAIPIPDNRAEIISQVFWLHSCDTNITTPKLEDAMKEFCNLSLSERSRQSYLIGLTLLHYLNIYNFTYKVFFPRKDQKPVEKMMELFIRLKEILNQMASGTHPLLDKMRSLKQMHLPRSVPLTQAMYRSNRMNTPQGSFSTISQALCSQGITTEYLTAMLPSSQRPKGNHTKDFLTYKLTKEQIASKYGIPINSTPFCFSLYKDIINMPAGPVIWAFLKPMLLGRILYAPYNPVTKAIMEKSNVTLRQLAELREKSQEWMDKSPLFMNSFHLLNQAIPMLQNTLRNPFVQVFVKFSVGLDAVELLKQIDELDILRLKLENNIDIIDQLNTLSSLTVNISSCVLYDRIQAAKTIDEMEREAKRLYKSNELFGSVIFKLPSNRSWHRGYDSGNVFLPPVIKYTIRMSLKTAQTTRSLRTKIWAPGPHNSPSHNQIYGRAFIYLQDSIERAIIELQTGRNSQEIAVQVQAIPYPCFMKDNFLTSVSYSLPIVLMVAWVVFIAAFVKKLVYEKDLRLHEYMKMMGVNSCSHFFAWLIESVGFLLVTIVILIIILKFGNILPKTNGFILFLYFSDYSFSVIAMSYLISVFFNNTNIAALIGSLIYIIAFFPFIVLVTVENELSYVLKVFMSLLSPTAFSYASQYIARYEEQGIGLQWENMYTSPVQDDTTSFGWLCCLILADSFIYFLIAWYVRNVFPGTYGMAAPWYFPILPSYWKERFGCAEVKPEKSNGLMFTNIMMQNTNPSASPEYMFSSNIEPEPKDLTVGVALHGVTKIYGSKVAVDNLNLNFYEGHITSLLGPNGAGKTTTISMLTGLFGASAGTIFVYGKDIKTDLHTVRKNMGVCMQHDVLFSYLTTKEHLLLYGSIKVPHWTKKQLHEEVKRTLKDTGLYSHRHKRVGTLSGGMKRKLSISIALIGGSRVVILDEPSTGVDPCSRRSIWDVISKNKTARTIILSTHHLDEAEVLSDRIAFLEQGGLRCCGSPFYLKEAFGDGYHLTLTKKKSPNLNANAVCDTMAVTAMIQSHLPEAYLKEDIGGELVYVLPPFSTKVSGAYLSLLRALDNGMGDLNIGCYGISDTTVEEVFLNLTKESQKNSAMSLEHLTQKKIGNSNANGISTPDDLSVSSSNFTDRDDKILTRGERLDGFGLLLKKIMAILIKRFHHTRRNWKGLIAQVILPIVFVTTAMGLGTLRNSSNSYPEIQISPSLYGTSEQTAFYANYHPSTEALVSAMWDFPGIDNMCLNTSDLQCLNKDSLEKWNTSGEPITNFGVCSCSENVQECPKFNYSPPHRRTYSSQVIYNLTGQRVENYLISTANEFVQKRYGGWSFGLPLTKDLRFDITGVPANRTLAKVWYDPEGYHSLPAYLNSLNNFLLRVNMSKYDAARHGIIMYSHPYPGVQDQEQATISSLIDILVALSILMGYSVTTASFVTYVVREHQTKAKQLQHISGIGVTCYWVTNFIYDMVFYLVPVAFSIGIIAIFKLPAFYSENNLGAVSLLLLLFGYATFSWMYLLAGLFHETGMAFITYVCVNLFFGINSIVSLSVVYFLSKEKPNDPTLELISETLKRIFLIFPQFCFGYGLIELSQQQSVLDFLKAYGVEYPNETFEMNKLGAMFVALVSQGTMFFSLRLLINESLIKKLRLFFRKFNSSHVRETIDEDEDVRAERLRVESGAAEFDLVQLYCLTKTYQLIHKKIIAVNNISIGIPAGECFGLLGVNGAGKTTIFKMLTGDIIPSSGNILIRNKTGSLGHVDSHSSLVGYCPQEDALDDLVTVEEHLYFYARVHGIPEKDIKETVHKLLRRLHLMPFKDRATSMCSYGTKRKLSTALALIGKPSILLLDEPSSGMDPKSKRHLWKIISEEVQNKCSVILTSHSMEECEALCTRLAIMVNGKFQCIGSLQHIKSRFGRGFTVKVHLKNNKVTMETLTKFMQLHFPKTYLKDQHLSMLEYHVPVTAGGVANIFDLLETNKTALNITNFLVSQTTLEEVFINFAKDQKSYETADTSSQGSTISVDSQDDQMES
Protocol: (§8) Expression levels are measured by real-time quantitative RT-PCR using the LightCycler RNA Amplification SYBR Green kit and a LightCycler machine (Roche Biochemicals, Indianapolis, Ind.). Specific oligonucleotide probes are designed for each of the ABC transporters using DNAStar Primer Select (DNASTAR Inc.), and they may be synthesized at Lofstrand Laboratories (Gaithersburg, Md.). When possible, the amplicons are designed to encompass exon-intron boundaries to avoid amplification of genomic DNA. Since the Syber Green assay detects accumulation of double stranded DNA, primers are selected (from a battery consisting of about 200 primers) that amplified a single product of the correct size.
as §2, §3, §4
(§9) To control the overall false type 1 error rate, both a step-down procedure (Westfall and Young, 1993, Resampling-Based Multiple Testing: Examples and Methods for p-value Adjustment (New York: Wiley)) and a step-up procedure (Reiner et al., 2003, Bioinformatics 19:368-375) were employed to adjust for multiple testing of all 47 genes simultaneously. […] In this analysis, the False Discovery Rate (q-value) at which each compound would be declared was calculated using the step-up procedure for positively correlated test statistics (again true because all correlations being compared are computed against the same ABC gene): in this procedure the first q-value for the largest correlation is the Bonferroni-corrected p-value for that gene; then further q-values are calculated as qj=max(pj*1429/j, qj-1). […]

ABCC3 = biological target: T4, ABCC3 (Homo sapiens, UniProt O15438); experiment: Correlation of ABCC3 expression with drug sensitivity across the NCI-60; type: cell-based; conditions: Pearson correlation of ABCC3 expression with sensitivity of the 60 cell lines; 1429 compounds; inverse, p < 0.0001
T4 construct: profiled in 60 diverse cancer cell lines (the NCI-60) using real-time RT-PCR; endogenous in cells; host or cells: NCI-60 human cancer cell lines
Protocol: as §1, §2, §3, §4
To determine quantitatively how well the 47 genes cluster the cell lines by their tissues of origin, a statistical method is employed wherein the kappa statistic is used to indicate how well the observed clusters correspond to the nine tissue-of-origin classifications. […] To control the overall false type 1 error rate, both a step-down procedure (Westfall and Young, 1993, Resampling-Based Multiple Testing: Examples and Methods for p-value Adjustment (New York: Wiley)) and a step-up procedure (Reiner et al., 2003, Bioinformatics 19:368-375) were employed to adjust for multiple testing of all 47 genes simultaneously. In the Benjamini-Hochberg procedure the p-values are computed in the standard way by permutation, assuming that all distributions are exchangeable: the number of values in the permuted data with correlations over a threshold, divided by the number of compounds and by the number of permutations. In this analysis, the False Discovery Rate (q-value) at which each compound would be declared was calculated using the step-up procedure for positively correlated test statistics (again true because all correlations being compared are computed against the same ABC gene): in this procedure the first q-value for the largest correlation is the Bonferroni-corrected p-value for that gene; then further q-values are calculated as qj=max(pj*1429/j, qj-1). This procedure limits the expected proportion of false positives in the list 1, . . . , j to at most qj.

MDR1 = MDR1 (Homo sapiens, UniProt P08183); conditions: cited from earlier work; for Interaction with MDR1: tested in various laboratories
ABCA1 = biological target: T5, ABCA1 (Homo sapiens, UniProt O95477); experiment: Correlation of ABCA1 expression with drug sensitivity across the NCI-60; type: cell-based; conditions: Pearson correlation of ABCA1 expression with sensitivity of the 60 cell lines; 1429 compounds; inverse, p < 0.0001
T5 construct: profiled in 60 diverse cancer cell lines (the NCI-60) using real-time RT-PCR; endogenous in cells; host or cells: NCI-60 human cancer cell lines
Protocol: as §1, §2, §3, §4, §5

ABCB1 = ABCB1 (Homo sapiens, UniProt P08183); experiment: Correlation of ABCB1 expression with drug sensitivity across the NCI-60
Summary of the method: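 SYBR Green real-time RT-PCR on 150 ng total RNA with 250 nM primers: RT 20 min at 50 °C, then 45 cycles; expression taken as crossing-point cycle number. Correlated with drug sensitivity of 1429 compounds across the cell panel; permutation p-values with step-down and step-up (FDR q-value) multiple-testing correction.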

ABCG2 = biological target: T6, ABCG2 (Homo sapiens, UniProt Q9UNQ0); experiment: Correlation of ABCG2 expression with drug sensitivity across the NCI-60; type: cell-based; conditions: Pearson correlation of ABCG2 expression with sensitivity of the 60 cell lines; 1429 compounds; inverse, p < 0.0001
T6 construct: endogenous in cells; host or cells: NCI-60 human cancer cell lines
T6 sequence (Q9UNQ0 whole entry): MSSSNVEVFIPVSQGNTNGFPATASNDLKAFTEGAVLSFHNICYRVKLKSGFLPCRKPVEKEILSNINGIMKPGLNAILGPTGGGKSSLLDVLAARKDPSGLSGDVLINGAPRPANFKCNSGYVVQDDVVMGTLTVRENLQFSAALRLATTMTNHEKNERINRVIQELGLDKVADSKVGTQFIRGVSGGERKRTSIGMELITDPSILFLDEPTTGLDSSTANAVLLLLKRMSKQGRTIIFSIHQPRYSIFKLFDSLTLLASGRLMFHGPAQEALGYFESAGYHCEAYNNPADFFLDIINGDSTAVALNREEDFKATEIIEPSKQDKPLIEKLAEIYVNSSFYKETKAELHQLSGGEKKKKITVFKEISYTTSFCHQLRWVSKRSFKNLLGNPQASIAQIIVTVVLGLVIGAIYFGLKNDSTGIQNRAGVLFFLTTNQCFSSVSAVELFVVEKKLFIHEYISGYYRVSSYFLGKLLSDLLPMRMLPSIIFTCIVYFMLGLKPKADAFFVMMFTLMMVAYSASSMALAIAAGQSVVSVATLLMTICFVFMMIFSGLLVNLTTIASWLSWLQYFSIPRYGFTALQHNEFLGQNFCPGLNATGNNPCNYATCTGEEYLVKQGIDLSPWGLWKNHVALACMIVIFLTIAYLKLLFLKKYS
Protocol: as §6, §7

ABCA9 = biological target: T7, ABCA9 (Homo sapiens, UniProt Q8IUA7); experiment: Correlation of ABCA9 expression with drug sensitivity across the NCI-60; type: cell-based; conditions: Pearson correlation of ABCA9 expression with sensitivity of the 60 cell lines; 1429 compounds; inverse, p < 0.0001
T7 construct: profiled in 60 diverse cancer cell lines (the NCI-60) using real-time RT-PCR; endogenous in cells; host or cells: NCI-60 human cancer cell lines
Protocol: as §6, §7

[1] = test system: ABCC2-transfected MDCKII cells; experiment: MTT assay, ABCC2-transfected vs sham-transfected MDCKII cells; type: cell-based, dog
Protocol: Panel A is a scatter plot showing the correlation (r) of ABCC2 expression with sensitivity of the 60 cells to NSC 641281 (r=−0.46; 99.99% two-tailed bootstrap confidence interval −0.7987 to −0.0440).
Cell survival is measured by the MTT (3-(4,5-Dimethylthiazol-2-yl)-2,5-diphenyltetrazolium) Assay. Cells are seeded in 100 μl medium at a density of 5000 cells/well in 96 well plates, and serially diluted drug (with or without 2 μM PSC 833) is added the following day in 100 μl medium to give the indicated final concentration. Cells are then incubated for 72 hrs at 37° C. in 5% CO2, and the MTT assay is performed according to the manufacturer's instructions (Molecular Probes, Eugene, Oreg.).
The ABCC (MRP) subfamily is comprised of nine members that transport structurally diverse lipophilic anions and function as drug efflux pumps (Kruh and Belinsky, 2003, Oncogene 22:7537-52). ABCC2-MRP2 is a canalicular efflux pump with a role in the hepatobiliary excretion of bilirubin glucuronide as well as numerous pharmaceuticals. […] One of these compounds, NSC 641281 (shown in FIG. 4, Panel C), was available from DTP for further testing. […]

[2] = test system: MDR1-overexpressing KB-V1 cells; experiment: Efflux assay (accumulation of fluorescent NSC 634791, flow cytometry); type: cell-based, human
Protocol: The dashed lines indicate the same experiment performed in the presence of 2 μM of the ABCB1 inhibitor, PSC 833 (for KB-3-1, the solid and dashed lines overlap). Values are means ±SE. for representative experiments performed in triplicate. […] The effect of PSC 833 on IC50 values in KB-V1 cells is expressed as a dose modifying factor, DMF=[IC50/IC50+(IC50)PSC833)], where (IC50)PSC833 is the value obtained in the presence of the inhibitor. […] Cells are incubated with 1.74 μM NSC 634791 for 10 min at 37° C. in the presence (peak on the right) or absence (peak on the left) of 2 μM PSC 833.
Trypsinized cells are washed twice in phosphate-buffered saline (PBS). 5×10^5 cells are pre-incubated for 5 min at 37° C. in Iscove's Modified Dulbecco's Medium (Quality Biologicals, Gaithersburg, Md.) with 0.5% dimethyl sulphoxide (DMSO), with or without 2 μM PSC 833. […] Green fluorescence intensity is measured using a FacsCalibur flow cytometer equipped with a 488-nm argon laser (Becton Dickinson Biosciences, San Jose, Calif., USA). […]
To test whether our approach using the NCI-60 does, in fact, identify new substrates, an MTT assay is used to test all top-scoring compounds that were available from DTP for follow-up experiments. […] The intrinsic fluorescence of one of the compounds, NSC 634791, allows for the measurement of the effect of MDR1 activity on its export from cells.

ABCA4 = biological target: T8, ABCA4 (Homo sapiens, UniProt P78363); experiment: Correlation of ABCA4 expression with drug sensitivity across the NCI-60; type: cell-based; conditions: Pearson correlation of ABCA4 expression with sensitivity of the 60 cell lines; 1429 compounds; inverse, p < 0.0001
T8 construct: profiled in 60 diverse cancer cell lines (the NCI-60) using real-time RT-PCR; endogenous in cells; host or cells: NCI-60 human cancer cell lines
Protocol: as §8, §2, §3, §4, §9

SMILES: COc1cc2c(cc1Oc1c(Oc3c(O)c(OC)cc4c3C(CC(C)C)N(C)CC4)c(OC)cc3c1C(CC(C)C)N(C)CC3)C(CC(C)C)N(C)CC2 (stereo not shown) [NSC 21075]
- Correlation (ABCC5): −0.3650

SMILES: Cn1c2ccccc2c2ccc3c(c21)C(=O)C=CC3=O [NSC 92937]
- Correlation (ABCB6): −0.4335

SMILES: COC(=O)c1ccccc1NC(=O)C(=O)CC(=O)c1ccccc1NC1=CC(=O)C(=O)c2ccccc21 [NSC 641240]
- Correlation (ABCA12): −0.5165
- Correlation (ABCC3): −0.5829

SMILES: CC(=O)O[C@@H]1C=C(C=O)[C@](O)(C=O)[C@@]2(C)CCCC(C)(C)[C@H]12 [NSC 277293]
- Correlation (ABCB6): −0.5055

SMILES: CC(=O)O[C@@H]1[C@@H](O)[C@H](O[C@H]2[C@H](OC(=O)[C@H]3CC[C@@H]4[C@H](C3)O[C@@]3(C[C@H](OC(=O)/C=C/c5ccccc5)[C@H](C)CO3)[C@]43CO3)O[C@H](C)[C@@H](O)[C@@H]2OC(C)=O)O[C@H](C)[C@H]1O [NSC 328426, phyllanthoside]
- Interaction with MDR1 (MDR1): interact with MDR1
- Correlation (ABCA1): −0.2806
- Correlation (ABCB1; Pearson correlation of ABCB1 expression with sensitivity of the 60 cell lines, 1429 compounds, inverse, p < 0.0001): −0.7784

SMILES: CS(=O)(=O)[O-].Cc1c2cc[n+](C)cc2c(C)c2c1[nH]c1ccccc12 [NSC 352299]
- Correlation (ABCC5): −0.4318

SMILES: CN(C)c1ccc(/C=c2/c3ccccc3n3c2cc(-c2ccc(Cl)cc2)[n+]3C)cc1.O=S(=O)([O-])C(F)(F)F [NSC 699479]
- Correlation (ABCA1): −0.4141

SMILES: OCCO[P+]1(OCCO)n2c3ccc2C(c2ccccc2)=C2C=CC(=N2)C(c2ccccc2)=c2ccc(n21)=C(c1ccccc1)C1=NC(=C3c2ccccc2)C=C1 [NSC 682066]
- Correlation (ABCA1): −0.3783
- Correlation (ABCB1): −0.7985

SMILES: Cn1c2ccc(F)cc2c2ccc3c(c21)C(=O)C=CC3=O [NSC 668844]
- Correlation (ABCG2): −0.4615

SMILES: CCS(=O)(=O)O.CN(C)C(=O)c1cccc(COc2ccc(N3C(N)=NC(N)=NC3(C)C)cc2Cl)c1 [NSC 139105, Baker's soluble antifol, reference compound]
- Reversal of resistance by verapamil (MDR1; verapamil, inhibitor of MDR1 transport (Gupta et al., 1988)): reversed by verapamil
- Relationship between drug sensitivity and ABCB1 expression (in words) (ABCB1): inversely correlated

SMILES: CCCCCCCCCCCCCCCC(=O)OCC1OC(OC)C2NP(=O)(N(CCCl)CCCl)OC1C2O (stereo not shown) [NSC 642915]
- Correlation (ABCA9): −0.4289

SMILES: COc1cc2c(cc1O)CC[C@@H]1[C@@H]2CC[C@]2(C)[C@@H](O)CC[C@@H]12 [NSC 659853]
- Correlation (ABCA12): −0.5016

SMILES: O=C(O)COc1ccc(C(=O)/C(SS/C(C(=O)c2ccc(OCC(=O)O)c(Cl)c2Cl)=C2\C=C(c3ccc(Br)cc3)SS2)=C2/C=C(c3ccc(Br)cc3)SS2)c(Cl)c1Cl [NSC 641281]
- Response of ABCC2-overexpressing MDCKII cells vs sham-transfected control [1]: extremely resistant; also recorded: no signs of toxicity even at maximal concentrations

SMILES: COc1ccc2c(c1)c1c(C)c3c[n+](C)ccc3c(C)c1n2C [NSC 155694]
- Correlation (ABCC5): −0.4494

SMILES: COC1=C(OC)C(=O)c2cc(C)c(=O)c(C)cc2C1=O [NSC 649666]
- Correlation (ABCA12): −0.3757

SMILES: O=C1C=C(Nc2ccccc2C(=O)CC(=O)C(=O)Nc2cccc(C(F)(F)F)c2)c2ccccc2C1=O [NSC 644751]
- Correlation (ABCA12): −0.5643
- Correlation (ABCC3): −0.5748

SMILES: C[C@]12CC[C@H]3[C@@H](CCC4=CC(=O)NCC[C@@]43C)[C@@H]1CC[C@@H]2OC(=O)COc1ccc(N(CCCl)CCCl)cc1 [NSC 620480]
- Correlation (ABCA9): −0.4846

SMILES: COc1cc2cc3c4cc(OC)c(OC)cc4cc[n+]3c(C)c2cc1OC [NSC 156625, Coralyne]
- Interaction with MDR1 (MDR1): interact with MDR1
- Correlation (ABCB1): −0.4657

SMILES: CCN(CC)c1ccc(/C=C2/C[N+](C)(C)C/C(=C/c3ccc(N(CC)CC)cc3)C2=O)cc1.[I-] [NSC 634791]
- Correlation (ABCB1): −0.7900
- Accumulation of the fluorescent compound in MDR1-positive cells vs parental KB-3-1 ([2]; 1.74 μM, 10 min at 37° C.): contain less of the fluorescent compound than the parental KB-3-1 cell line
- Effect of PSC 833 on the decreased accumulation ([2]; 2 μM PSC 833): completely reversible

SMILES: CCOC(=O)/C=C(\C(=O)OCC)n1cc(C)c(=O)n(Cc2cnnn2CCCCOC(C)=O)c1=O [NSC 694002]
- Correlation (ABCG2): −0.3627
- Pearson's Correlation Coeff (ABCB1): 0.2442

SMILES: C=C1[C@H](OCC(C)C)[C@@H](O)[C@@H](OC(=O)c2cccnc2)C(C)(C)/C=C/[C@H](C)[C@H](OC(C)=O)[C@@]2(O)C[C@@](C)(OC(C)=O)[C@H](OC(=O)c3ccccc3)[C@@H]2[C@H]1OC(C)=O [NSC 688235]
- Correlation (ABCA4): −0.3557

SMILES: Cc1c2cc[n+](Cc3ccc(I)cc3)cc2c(C)c2c1[nH]c1ccccc12 [NSC 604574]
- Correlation (ABCC5): −0.4123

SMILES: CC1=C(C(=O)Nc2ccccc2)C(c2ccc(N(C)C)cc2)C(C(=O)Nc2ccccc2)=C(C)N1 [NSC 636092]
- Correlation (ABCA4): −0.3977

SMILES: CC[n+]1c(/C=C/c2ccc(N(CCCl)CCCl)cc2)ccc2cc(NC(=O)/C=C/c3ccccc3)ccc21.[I-] [NSC 640085]
- Correlation (ABCA1): −0.3580
